Patent US20040014215A1, “Synchronised arabidopsis cell suspensions and uses thereof” (priority 2000, published 2004)

Columns and labels:
[1] = test system: Arabidopsis cell suspension MM2d; assay: Aphidicolin block/release of MM2d: proportion of G1, S and G2 cells by flow cytometry; assay type: cell-based, Arabidopsis thaliana
Protocol: The level of synchronicity of the Arabidopsis cell suspension culture MM1 was analysed by flow cytometry. The cell pellet from 5 ml of cell suspension culture was frozen in liquid nitrogen. To analyse the DNA content, the High Resolution Kit for Plant ploidy analysis (Type P) (Partec, Cat. No. 06-5-4004) was used, containing solution A (to release cell nuclei) and solution B (to stain DNA with DAPI). A sample of the frozen cell pellet was transferred into a small petri-dish (5 cm diameter), 150 μl of solution A was added, and the sample was carefully chopped with vertical motion of a sharp razor blade. An additional 150 μl of solution A was added, the cell suspension pipetted up and down for several time before leaving for approximately 2 min at RT. The released cell nuclei were filtered through a 50 μm nylon mesh (Partec, CellTrics 50 μm, Cat. No. 06-4-2317) and 1 ml of solution B was added to the filtrate. On average 8200 particles were counted with a flow cytometer (PASIII; Partec GmbH, Germany), using HBO lamp excitation (Partec, mercury lamp HBO 100 long life, 100W) and detection of emission using a blue filter. Cell cycle phases were analysed using Multicycle for Windows (Phoenix Flow Systems, San Diego, Calif.). Flow cytometry results are not corrected for the mitotic cells (which are not measured by this method).
This experiment was carried out as described for Example 1, except that cell line MM2d was used, and the culture conditions throughout the experiment were as described for MM2d in Example 1.
Synchronisation was performed as described in Example 2A, with the exception that before adding aphidicolin, 20 ml of the weekly subcultured cell suspension was transferred into 100 ml fresh MSS-medium in each of 2 separate flasks and cultivated under conditions as described in Example 1 for MM2d. […] Samples were taken at the same time frame for flow cytometry to follow cell cycle transition.
Samples were analysed by flow cytometry to determine the percentage of cells being in G1-, S- and G2M phase. The mitotic index (MI) and labelling index (LI) were independently determined (as described in Example 2A). Results are shown below in table II and in FIG. 1.
Table II. Aphidicolin block/release of Arabidopsis cell suspension MM2d. Data are shown from analysis of samples obtained in the experiment described in Example 2B.

histone H4 = assay: Northern expression analysis after aphidicolin synchronisation of MM1 (maximum signal = 100%); assay type: cell-based, Arabidopsis thaliana
Protocol: was analysed following the expression level of known cell cycle regulated genes. Synchronisation was performed as described in Example 2A, with the exception that two 7-day old cultures of the weekly sub-cultured cell suspension (210 ml each) were combined. 40 ml of combined culture was transferred into 200 ml of fresh MSS-medium in each of 10 separate flasks. After incubation for 24 hrs under conditions as described in Example 1, in the presence of 4.16 μg/ml aphidicolin, cells from 5 pooled flasks were washed through a nylon net (mesh size 47 μm) and washed with 2 litre MSS medium and shaken vigorously to remove the aphidicolin. Cells were transferred into a 50 ml plastic tube, washed again with MSS medium and centrifuged at 2500 rpm for 1 min (1075 rcf). Cells were resuspended and combined with the cells from the other 5 flasks similarly washed in a total volume of 300 ml fresh MSS-medium. 30 ml of this cell suspension was then added to 200 ml fresh MSS-medium in each of 10 separate flasks.
1) 25 ml for Northern blot (transferred into 50 ml plastic tube, centrifuged at 2500 rpm for 1 min, the supernatant discarded, and the cell pellet shock-frozen in liquid nitrogen before storing in −80° C. freezer)
Samples were collected at the time point indicated (time of removal of aphidicolin equals time point 0 hrs) and were analysed for expression of the following genes by Northern blot:
histone H4 (ID/Accession no. ATH4 GB/M17133)
For each probe the maximum hybridisation signal obtained was defined as 100%.

[2] = 0 hrs after aphidicolin removal
[3] = 2 hrs after aphidicolin removal
[4] = 4 hrs after aphidicolin removal
[5] = 6 hrs after aphidicolin removal
[6] = 8 hrs after aphidicolin removal
[7] = 10 hrs after aphidicolin removal
[8] = 12 hrs after aphidicolin removal
[9] = 14 hrs after aphidicolin removal
[10] = 16 hrs after aphidicolin removal
[11] = 18 hrs after aphidicolin removal
[12] = 20 hrs after aphidicolin removal
[13] = 22 hrs after aphidicolin removal
[14] = 24 hrs after aphidicolin removal
[15] = 26 hrs after aphidicolin removal
[16] = 28 hrs after aphidicolin removal

SMILES: C[C@@]1(CO)[C@H](O)CC[C@@]2(C)[C@H]1CC[C@H]1C[C@@H]3C[C@@]12CC[C@]3(O)CO [aphidicolin]
- G1 (%) MM2d ([1]; 0 h after aphidicolin removal): 46.9%
- G2 (%) MM2d ([1]; 0 h after aphidicolin removal): 16.4%
- S (%) MM2d ([1]; 0 h after aphidicolin removal): 36.6%
- G1 (%) MM2d ([1]; 1 h after aphidicolin removal): 16.6%
- G2 (%) MM2d ([1]; 1 h after aphidicolin removal): 4.9%
- S (%) MM2d ([1]; 1 h after aphidicolin removal): 78.6%
- G1 (%) MM2d ([1]; 2 h after aphidicolin removal): 21.5%
- G2 (%) MM2d ([1]; 2 h after aphidicolin removal): 5.3%
- S (%) MM2d ([1]; 2 h after aphidicolin removal): 73.2%
- G1 (%) MM2d ([1]; 3 h after aphidicolin removal): 24.8%
- G2 (%) MM2d ([1]; 3 h after aphidicolin removal): 11.2%
- S (%) MM2d ([1]; 3 h after aphidicolin removal): 64.1%
- G1 (%) MM2d ([1]; 4 h after aphidicolin removal): 18.8%
- G2 (%) MM2d ([1]; 4 h after aphidicolin removal): 48.2%
- S (%) MM2d ([1]; 4 h after aphidicolin removal): 33%
- G1 (%) MM2d ([1]; 5 h after aphidicolin removal): 15.1%
- G2 (%) MM2d ([1]; 5 h after aphidicolin removal): 74.8%
- S (%) MM2d ([1]; 5 h after aphidicolin removal): 10.1%
- G1 (%) MM2d ([1]; 6 h after aphidicolin removal): 12.5%
- G2 (%) MM2d ([1]; 6 h after aphidicolin removal): 80.6%
- S (%) MM2d ([1]; 6 h after aphidicolin removal): 6.9%
- G1 (%) MM2d ([1]; 7 h after aphidicolin removal): 10.5%
- G2 (%) MM2d ([1]; 7 h after aphidicolin removal): 89.5%
- S (%) MM2d ([1]; 7 h after aphidicolin removal): 0%
- G1 (%) MM2d ([1]; 8 h after aphidicolin removal): 9%
- G2 (%) MM2d ([1]; 8 h after aphidicolin removal): 91%
- S (%) MM2d ([1]; 8 h after aphidicolin removal): 0%
- G1 (%) MM2d ([1]; 9 h after aphidicolin removal): 7.6%
- G2 (%) MM2d ([1]; 9 h after aphidicolin removal): 92.4%
- S (%) MM2d ([1]; 9 h after aphidicolin removal): 0%
- G1 (%) MM2d ([1]; 10 h after aphidicolin removal): 10.1%
- G2 (%) MM2d ([1]; 10 h after aphidicolin removal): 89.6%
- S (%) MM2d ([1]; 10 h after aphidicolin removal): 0%
- G1 (%) MM2d ([1]; 11 h after aphidicolin removal): 17.2%
- G2 (%) MM2d ([1]; 11 h after aphidicolin removal): 82.8%
- S (%) MM2d ([1]; 11 h after aphidicolin removal): 0%
- G1 (%) MM2d ([1]; 12 h after aphidicolin removal): 27.7%
- G2 (%) MM2d ([1]; 12 h after aphidicolin removal): 72.3%
- S (%) MM2d ([1]; 12 h after aphidicolin removal): 0%
- G1 (%) MM2d ([1]; 13 h after aphidicolin removal): 32.1%
- G2 (%) MM2d ([1]; 13 h after aphidicolin removal): 67.9%
- S (%) MM2d ([1]; 13 h after aphidicolin removal): 0%
- G1 (%) MM2d ([1]; 14 h after aphidicolin removal): 34.3%
- G2 (%) MM2d ([1]; 14 h after aphidicolin removal): 65.7%
- S (%) MM2d ([1]; 14 h after aphidicolin removal): 0%
- G1 (%) MM2d ([1]; 15 h after aphidicolin removal): 40.7%
- G2 (%) MM2d ([1]; 15 h after aphidicolin removal): 59.3%
- S (%) MM2d ([1]; 15 h after aphidicolin removal): 0%
- G1 (%) MM2d ([1]; 16 h after aphidicolin removal): 34.9%
- G2 (%) MM2d ([1]; 16 h after aphidicolin removal): 59.4%
- S (%) MM2d ([1]; 16 h after aphidicolin removal): 5.8%
- G1 (%) MM2d ([1]; 17 h after aphidicolin removal): 40.8%
- G2 (%) MM2d ([1]; 17 h after aphidicolin removal): 52%
- S (%) MM2d ([1]; 17 h after aphidicolin removal): 7.3%
- G1 (%) MM2d ([1]; 18 h after aphidicolin removal): 40.7%
- G2 (%) MM2d ([1]; 18 h after aphidicolin removal): 47.9%
- S (%) MM2d ([1]; 18 h after aphidicolin removal): 11.3%
- G1 (%) MM2d ([1]; 19 h after aphidicolin removal): 38.4%
- G2 (%) MM2d ([1]; 19 h after aphidicolin removal): 47.3%
- S (%) MM2d ([1]; 19 h after aphidicolin removal): 14.4%
- G1 (%) MM2d ([1]; 20 h after aphidicolin removal): 37.7%
- G2 (%) MM2d ([1]; 20 h after aphidicolin removal): 45.5%
- S (%) MM2d ([1]; 20 h after aphidicolin removal): 16.9%
- maximum G2 synchrony ([1]; MM2d, flow cytometry): 90%
- maximum S phase synchrony ([1]; MM2d, flow cytometry): 79%
- histone H4 % (histone H4; [2]): 33.81%
- histone H4 Band intensity (histone H4; [2]): 1029
- histone H4 % (histone H4; [3]): 100.0%
- histone H4 Band intensity (histone H4; [3]): 3046
- histone H4 % (histone H4; [4]): 84.73%
- histone H4 Band intensity (histone H4; [4]): 2580
- histone H4 % (histone H4; [5]): 58.91%
- histone H4 Band intensity (histone H4; [5]): 1794
- histone H4 % (histone H4; [6]): 32.42%
- histone H4 Band intensity (histone H4; [6]): 987
- histone H4 % (histone H4; [7]): 38.70%
- histone H4 Band intensity (histone H4; [7]): 1178
- histone H4 % (histone H4; [8]): 28.53%
- histone H4 Band intensity (histone H4; [8]): 868
- histone H4 % (histone H4; [9]): 22.81%
- histone H4 Band intensity (histone H4; [9]): 694
- histone H4 % (histone H4; [10]): 12.75%
- histone H4 Band intensity (histone H4; [10]): 388
- histone H4 % (histone H4; [11]): 11.26%
- histone H4 Band intensity (histone H4; [11]): 343
- histone H4 % (histone H4; [12]): 19.43%
- histone H4 Band intensity (histone H4; [12]): 591
- histone H4 % (histone H4; [13]): 17.55%
- histone H4 Band intensity (histone H4; [13]): 534
- histone H4 % (histone H4; [14]): 17.77%
- histone H4 Band intensity (histone H4; [14]): 541
- histone H4 % (histone H4; [15]): 23.04%
- histone H4 Band intensity (histone H4; [15]): 701
- histone H4 % (histone H4; [16]): 14.35%
- histone H4 Band intensity (histone H4; [16]): 437
